According to patent US20240043880A1, “IMPROVED METHODS FOR PRODUCTION, RECOVERY AND SECRETION OF HYDROPHOBIC COMPOUNDS IN A FERMENTATION” (BioPhero ApS, priority 2019, published 2024):

Experiments:
Helicoverpa armigera = conditions: H. armigera, cited from earlier work
Chilo suppressalis = conditions: C. suppressalis, cited from earlier work
[1] = tested on: Y. lipolytica strain ST8881; format: cell-based, Yarrowia lipolytica; conditions: antifoaming agent 3 v/v %
Excerpt: Strain ST8327 has been engineered to produce (Z)11-hexadecen-1-ol. […] The strain expresses the Δ11 desaturase from Amyelois transitella (SEQ ID NO: 1) and fatty acyl-CoA reductase from Helicoverpa armigera (SEQ ID NO: 5). Strain ST8762 has been engineered to produce (Z)9-tetradecen-1-ol. The strain expresses the Δ9 desaturase from Drosophila melanogaster (SEQ ID NO: 16) and fatty acyl-CoA reductase from Helicoverpa armigera (SEQ ID NO: 5). […] A strain was inoculated from a YPD agar plate (10 g/L yeast extract, 10 g/L peptone, 20 g/L glucose, 15 g/L agar agar) to an initial OD600 of 0.1-0.2 into 2.5 mL YPG medium (10 g/L yeast extract, 10 g/L peptone, 40 g/L glycerol) in 24 well-plate (EnzyScreen). The plate was incubated at 28° C. and 300 rpm for 22 hours. […] At the same time, 95 μL of Antifoam A (ethoxylated and propoxylated C16-18 alcohols, CAS No. 68002-96-0), corresponding to […] (i.e. above the recommended dose of 0.1 v/v % for foam management and above the cloud concentration), was added. The plate was incubated at 28° C. and 300 rpm for 28 hours. Each experiment was performed in biological triplicates.
The intracellular and extracellular concentrations of fatty alcohols were assessed as follows. 1000 μL of culture broth was transferred to a 4 mL gas-tight glass extraction vial. The sample was centrifuged at 3,500 g for 5 min at room temperature. The supernatant was transferred into a new glass vial with 990 μL of hexane and 10 μL of internal standard (IS) solution (20 mg/L of methyl Z10-heptadecanoate in ethyl acetate). The vial was vortexed for 10 s and centrifuged as before. 250 μL of the upper hexane phase was transferred to a GC vial for GC-MS analysis of the extracellular fatty alcohol concentration. The pellet remaining after the removal of the supernatant from the centrifuged culture broth was resuspended in 990 μL of solvent mixture (EtOAc and EtOH) and 10 μL of IS solution as above. The sample was incubated for 1 h with periodic mixing. 300 μL water was added and the vials were centrifuged at 3,500 g for 5 min at room temperature. 250 μL of the upper organic phase was transferred to a GC vial for GC-MS analysis of the intracellular fatty alcohols. GC-MS analyses were performed on an Agilent 7820A GC coupled to a mass selective detector Agilent 5977B. The GC was equipped with an DB Fatwax column (30 m×0.25 mm×0.25 μm), and helium was used as carrier gas. The MS was operated in electron impact mode (70 eV), scanning between m/z 30 and 400, and the injector was configured in split mode 20:1 at 220° C. Oven temperature was set to 80° C. for 1 min, then increased at a rate of 20° C./min to 210° C., followed by a hold at 210° C. for 7 min, and then increased at a rate of 20° C./min to 230° C. Compounds were identified by comparison of retention times and mass spectra of the reference compounds. Compounds were quantified by the ion 55.1 m/z. Data were analysed by the Agilent Masshunter software. The concentrations of fatty alcohols were calculated based on standard calibration curves prepared with reference standards.
Here we investigated the effect of different antifoaming oils and agents on the recovery of fatty alcohols in a separate phase. The experiments were performed with engineered Y. lipolytica strain ST8881 following the procedures as in Example 1.
The control experiment was performed without addition of any antifoaming oil or agent.

Row | Compound | Behavioral response (Helicoverpa armigera) | Behavioral response (Chilo suppressalis) | % secretion of Z11.hexadecen-1-ol [1] | Extracellular concentration of Z11.hexadecen-1-ol [1] | Total concentration of Z11-hexadecen-1-ol [1] | Effect on the activity of an artificial pheromone formulation when added to Z11-16:Ald (Helicoverpa armigera; Kehat et al., 1990) | Interaction with the two primary pheromone components Z11-16:Ald and Z13-18:Ald (Chilo suppressalis; Tatsuki et al.)
1 | CCCCCCCCCCCCCCCC=O [16:Ald, n-Hexadecanal] | neutral | does not elicit a behavioral response | – | – | – | – | –
2 | CCCCCCCCCCCC [Dodecane] | – | – | 0 (0%) | 0 (0%) | 720.0 ± 95.6 mg/L | – | –
3 | CCCCCCCC/C=C\CCCCCCCC(=O)O [Oleic acid] | – | – | 0 (0%) | 0 (0%) | 1008.4 ± 648.6 mg/L | – | –
4 | CCCCCC/C=C\CCCCCCCC=O [Z9-16:Ald] | – | – | – | – | – | enhance the activity | synergistic
